Assay [1] deals with bacterial biofilms. The following applies: cited from earlier work.
The subject of assay [2] is Cryptococcus neoformans (Cn). Briefly: CO-ADD antimicrobial screening, growth of Cryptococcus neoformans (MIC). It is filed as cell-based. Here is the method:
Briefly, CO-ADD, The Community for Open Antimicrobial Drug Discovery, is a global open-access screening initiative launched in February 2015 to uncover significant and rich chemical diversity held outside of corporate screening collections. For screening, about 1 mg of pure compound is required and the compounds must be soluble in DMSO. In the preliminary screening, compounds are tested against some ESKAPE pathogens, including, but are not limited to, E. coli, K. pneumoniae, A. baumannii, P. aeruginosa, S. aureus (MRSA), as well as the fungi, for example, C. neoformans and C. albicans. The screen uses a single concentration (e.g., […]) and provides initial activity data to select compounds for further more detailed screening. Active compounds from the preliminary screening are tested in dose response antimicrobial assays to confirm their activity. […]
The minimum inhibitory concentration (MIC) was determined following the CLSI (Clinical Laboratory and Standards Institute) guidelines, identifying the lowest concentration at which full inhibition of the bacteria or fungi has been detected. […]
Fungi strains were cultured for 3 days on Yeast Extract-Peptone Dextrose (YPD) agar at 30° C. A yeast suspension of 1×106 to 5×10^6 CFU/mL (as determined by OD530) was prepared from five colonies. […]

For assay [3], the system named is Pseudomonas aeruginosa (PA14). Description: Pa biofilm formation/growth inhibition assay (crystal violet). Format: cell-based. The following applies: phenylalanine deficient biofilm assay.
In assay [4] the test system is Ca and/or Cn (Candida albicans, Cryptococcus neoformans). Description: CO-ADD preliminary screen and hit confirmation against fungi. Format: cell-based. The following applies: two replicated lots, mixtures of enantiomers or diastereomers; for preliminary activity against Ca and/or Cn (preliminary screen): single concentration. On the procedure: (§1) Briefly, CO-ADD, The Community for Open Antimicrobial Drug Discovery, is a global open-access screening initiative launched in February 2015 to uncover significant and rich chemical diversity held outside of corporate screening collections. For screening, about 1 mg of pure compound is required and the compounds must be soluble in DMSO. In the preliminary screening, compounds are tested against some ESKAPE pathogens, including, but are not limited to, E. coli, K. pneumoniae, A. baumannii, P. aeruginosa, S. aureus (MRSA), as well as the fungi, for example, C. neoformans and C. albicans. The screen uses a single concentration (e.g., […]) and provides initial activity data to select compounds for further more detailed screening. Active compounds from the preliminary screening are tested in dose response antimicrobial assays to confirm their activity. Active compounds are screened for adverse effects, such as cytotoxicity, critical micelle concentration and membrane depolarization, as well as for their purity. Then, the hit compound is tested against a broader panel of microbes with multidrug-resistant (MDR) and pan-resistant bacterial strains and clinical isolates, with different co-factors (such as serum or lung surfactant). The hit validation includes initial ADMET screening, including haemolysis, microsome and plasma stability and protein binding. See CO-ADD website for more details.
(§2) The minimum inhibitory concentration (MIC) was determined following the CLSI (Clinical Laboratory and Standards Institute) guidelines, identifying the lowest concentration at which full inhibition of the bacteria or fungi has been detected. […] Note that MIC values are discrete values based on the concentration in a specific well.
(§3) Selection of Hits: Samples with MIC (≤16 μg/mL or ≤10 μM) are declared as a hit. For toxicity (cytotoxicity and haemolytic activity) all sample/s with CC50/HC10≤maximum tested concentration are considered active, or toxic. Since the maximum tested concentration is the same for toxicity and antimicrobial activity, no therapeutic index (MIC/CC50 or MIC/HC10) can be calculated and all sample/s with toxic activity are flagged.
Growth inhibition of C. albicans was determined measuring absorbance at 530 nm (OD530), while the growth inhibition of C. neoformans was determined measuring the difference in absorbance between 600 and 570 nm (OD600-570), after the addition of resazurin (0.001% final concentration) and incubation at 35° C. for additional 2 h. The absorbance was measured using a Biotek Synergy HTX plate reader. The percentage of growth inhibition was calculated for each well, using the negative control (media only) and positive control (bacteria without inhibitors) on the same plate as references. Percentage growth inhibition of an individual sample is calculated based on Negative controls (media only) and Positive Controls (bacterial/fungal media without inhibitors). Negative inhibition values indicate that the growth rate (or OD600) is higher compared to the Negative Control (Bacteria/fungi only, set to 0% inhibition). The growth rates for all bacteria and fungi has a variation of −/+10%, which is within the reported normal distribution of bacterial/fungal growth.
In addition, two values are used as quality controls for individual plates: Z′-Factor [1−(3*(sd(NegCtrl)+sd(PosCtrl))/(average(PosCtrl)−average(NegCtrl)))] and Standard Antibiotic controls at different concentrations (>MIC and <MIC). […] Active samples are defined as those with inhibition values equal to or above 80% and abs(Z-Score) above 12.51 for either replicate (n=2 on different plates) were classed as active. Partially active compounds are defined as those with inhibition values between 50.9%-79.9% or abs(Z-Score) below 12.51.
Samples were prepared in DMSO and water to a final testing concentration of 32 μg/mL or 20 μM and serially diluted 1:2 fold for 8 times. […]

The subject of assay [5] is Acinetobacter baumannii. Briefly: CO-ADD preliminary screen and hit confirmation against Acinetobacter baumannii. It is filed as cell-based. The settings on record: for hit confirmation against Acinetobacter baumannii: hit confirmation (HC), separated diastereomers; for activity against Acinetobacter baumannii in the preliminary screen: preliminary screen (PS). On the procedure:
as §1, §2, §3
Referring now to FIGS. 52 and 53, inhibition of bacterial growth was determined measuring absorbance at 600 nm (OD600), using a Tecan M1000 Pro monochromator plate reader. The percentage of growth inhibition was calculated for each well, using the negative control (media only) and positive control (bacteria without inhibitors) on the same plate as references.
Samples were prepared in DMSO and water to a final testing concentration of 32 μg/mL or 20 μM and serially diluted 1:2 fold for 8 times. Each sample concentration was prepared in 384-well plates, non-binding surface plate (NBS; Corning 3640) for each bacterial/fungal strain or Tissue-culture treated (TC-treated; Corning 3712/3764) black for mammalian cell types, all in duplicate (n=2), and keeping the final DMSO concentration to a maximum of 0.5% DMSO. All the sample preparation was done using liquid handling robots.
For the antibacterial screening, all bacteria were cultured in Cation-adjusted Mueller Hinton broth (CAMHB) at 37° C. overnight. A sample of each culture was then diluted 40-fold in fresh broth and incubated at 37° C. for 1.5-3 h. The resultant mid-log phase cultures were diluted (CFU/mL measured by OD600), then added to each well of the compound containing plates, giving a cell density of 5×10^5 CFU/mL and a total volume of 50 μL. All the plates were covered and incubated at 37° C. for 18 h without shaking.

SMILES strings stand for the structures. Where a SMILES comes first, the peptide text is derived from it. [ ]: non-standard residue; d: D form. ξ: configuration not given here. ξPhe(3-F) = NC(Cc1cccc(F)c1)C(=O)O; ξPhe(4-F) = NC(Cc1ccc(F)cc1)C(=O)O

`N[C@H](Cc1ccc(O)cc1)C(=O)O` [D-Tyrosine]: the “trigger for the disassembly of bacterial biofilms” value in assay [1] was “particularly active”. With `C[C@H](N)C(=O)NC(Cc1ccccc1F)C(=O)O` (stereo partly drawn) [compound 36, (2R,2S)-[2-((S)-2-aminopropanamido)-3-(2-fluorophenyl)]propanoic acid], the “inhibitory effects on the growth of Cryptococcus neoformans (Cn)” value in assay [2] was “exhibited inhibitory effects”. In addition, the “ability to inhibit the growth of P. aeruginosa (Pa) in a biofilm assay” value in assay [3] is listed as “potent ability to inhibit the growth”. Besides, in assay [4], the “activity against Ca and/or Cn confirmed (hit confirmation)” value (“activity against Ca and/or Cn confirmed” for short) is “confirmed”. Take `NCC(=O)NC(Cc1cccc(F)c1)C(=O)O` [compound 43, (2R,2S)-[2-(2-aminoacetamido)]-3-(3-fluorophenyl)propanoic acid] (H-Gly-[ξPhe(3-F)]-OH): in assay [4], the “preliminary activity against Ca and/or Cn (preliminary screen)” value (from here on “preliminary activity … (preliminary screen)”) is recorded as “preliminary activity”.

For `C[C@H](N)C(=O)NC(Cc1ccc(F)cc1)C(=O)O` (stereo partly drawn) [compound 25, (2R,2S)-[2-((S)-2-aminopropanamido)]-3-(4-fluorophenyl)propanoic acid], the “inhibitory effects on the growth of Cryptococcus neoformans (Cn)” value in assay [2] was “exhibited inhibitory effects”. Also, in assay [3], the “ability to inhibit the growth of P. aeruginosa (Pa) in a biofilm assay” value was “potent ability to inhibit the growth”. Besides, the “activity against Ca and/or Cn confirmed” value in assay [4] is “confirmed”.

`N[C@@H](Cc1ccc(O)cc1)C(=O)NC(Cc1cccc(F)c1)C(=O)O` (stereo partly drawn) [compound 45, (2R,2S)-[2-((S)-2-amino-3-(4-hydroxyphenyl)propanamido)]-3-(3-fluorophenyl)propanoic acid]: the “preliminary activity … (preliminary screen)” value in assay [4] is recorded as “preliminary activity”. On to `N[C@@H](Cc1ccc(O)cc1)C(=O)N[C@@H](Cc1cccc(F)c1)C(=O)O` (single isomer, unassigned) [45a], for which, in assay [5], the “hit confirmation against Acinetobacter baumannii” value is “hit confirmation was observed” and the “activity against Acinetobacter baumannii in the preliminary screen” value (from here on “activity against Acinetobacter baumannii”) is listed as “not seen”. As for `N[C@H](C(=O)NC(Cc1cccc(F)c1)C(=O)O)c1ccccc1` (stereo partly drawn) [compound 52, (2R,2S)-[2-((S)-2-amino-2-phenylacetamido)]-3-(3-fluorophenyl)propanoic acid], the “preliminary activity … (preliminary screen)” value in assay [4] was “preliminary activity”.

Take `C[C@H](N)C(=O)N[C@@H](Cc1cccc(F)c1)C(=O)O` (single isomer, unassigned) [44a]: in assay [5], the “hit confirmation against Acinetobacter baumannii” value is on record as “hit confirmation was observed” and the “activity against Acinetobacter baumannii” value is listed as “not seen”. Take `C[C@H](N)C(=O)NC(Cc1cccc(F)c1)C(=O)O` (stereo partly drawn) [compound 44, (2R,2S)-[2-((S)-2-aminopropanamido)]-3-(3-fluorophenyl)propanoic acid]: the “activity against Ca and/or Cn confirmed” value in assay [4] was “confirmed”. Turning to `O=C(O)C(Cc1cccc(F)c1)NC(=O)[C@@H]1CCCN1` (stereo partly drawn) [compound 48, (2R,2S)-[3-(3-fluorophenyl)]-2-((S)-pyrrolidine-2-carboxamido)propanoic acid] (H-Pro-[ξPhe(3-F)]-OH), the “preliminary activity … (preliminary screen)” value in assay [4] is recorded as “preliminary activity”. On to `CC(C)C[C@H](N)C(=O)NC(Cc1cccc(F)c1)C(=O)O` (stereo partly drawn) [compound 46, (2R,2S)-[2-((S)-2-amino-4-methylpentanamido)]-3-(3-fluorophenyl)propanoic acid], for which the “preliminary activity … (preliminary screen)” value in assay [4] is “preliminary activity”. For the molecule `C[C@@H](O)[C@H](N)C(=O)NC(Cc1ccc(F)cc1)C(=O)O` (stereo partly drawn) [compound 108, (2R,2S)-[((2S,3R)-2-amino-3-hydroxybutanamido)]-3-(4-fluorophenyl)propanoic acid] (H-Thr-[ξPhe(4-F)]-OH), the “ability to inhibit the growth of P. aeruginosa (Pa) in a biofilm assay” value in assay [3] is given as “had shown activity”. Turning to `NCC(=O)NC(Cc1ccc(F)cc1)C(=O)O` [compound 30, (2R,2S)-[2-(2-aminoacetamido)]-3-(4-fluorophenyl)propanoic acid] (H-Gly-[ξPhe(4-F)]-OH), the “preliminary activity … (preliminary screen)” value in assay [4] is given as “preliminary activity”.

Consider `C[C@H](N)C(=O)N[C@@H](Cc1ccc(F)cc1)C(=O)O` (single isomer, unassigned) [25a], for which, in assay [5], the “hit confirmation against Acinetobacter baumannii” value is on record as “hit confirmation was observed” and the “activity against Acinetobacter baumannii” value is “not seen”.

Values taken from US10793594B2, “Antimicrobial compounds and/or modulators of microbial infections and methods of using the same” (Indiana University Research and Technology Corporation, priority 2017, dated 2020).
